# Test results as given in patent publication US20010038824A1, “Intranasal cyclic peptide formulations” (priority 2000, published 2001).
# Numbered stars: 1 amine (or outer) side, 2 acyl side, 3 side chain; on linkers, the order of the positions; unused ones are H or OH. Bridge positions count the residues as written; N and C are the ends. Square brackets hold non-standard residues; d marks the D form. Peptide text beside a SMILES is read from it. * marks the point of attachment. ξ: configuration not given here. pTerphenylCO(4''-OnC5H11) = CCCCCOc1ccc(-c2ccc(-c3ccc(C(=O)*)cc3)cc2)cc1; Orn(4R-OH,5R-OH) = O=C([C@H](C[C@@H](O)[C@@H](O)N[*:3])N[*:1])[*:2]; X9 = O=C(C[C@@H](CCc1ccc(-c2ccc(OCCCc3ccccc3)cc2)cc1)N[*:2])[*:1]; hTyr(3S-OH,4S-OH) = N[C@H](C(=O)O)[C@H](O)[C@@H](O)c1ccc(O)cc1; X5 = CC(C)CCCOc1ccc(-c2ccc(CC[C@H](CC(=O)[*:1])N[*:2])cc2)cc1; X11 = CCCCCOc1ccc(-c2ccc(CC[C@H](CC(=O)[*:1])N[*:2])cc2)cc1; X8 = CCCCCCCCCOc1ccc2cc(CC[C@H](CC(=O)[*:1])N[*:2])ccc2c1; Orn(Nα,Nα-(2-aminoethyl)2) = NCCC[C@@H](C(=O)*)N(CCN)CCN; NαBis(2-aminoethyl)dOrn = NCCC[C@H](C(=O)*)N(CCN)CCN; X6 = NCCC[C@H](N)C(=O)N(CCCN)CCCC(N[*:1])C(=O)[*:2]; Pro(3S-OH,4S-Me) = C[C@H]1CN[C@H](C(=O)O)[C@H]1O; X7 = CCCCCCCCCCCCC(C)[C@H](CC(=O)[*:1])O[*:2]; X4 = CCCCCCCCCCCCC[C@H](CC(=O)[*:1])O[*:2]; X3 = NCCCN(CCCC(N[*:1])C(=O)[*:2])[*:3]; X2 = NC(=O)CC(O)C(N[*:1])C(=O)[*:2]; ξDopa = NC(Cc1ccc(O)c(O)c1)C(=O)O; Hyp = O=C(O)[C@@H]1C[C@@H](O)CN1; X1 = O=C(C1C(O)CCN1[*:1])[*:2]; ξY = NC(Cc1ccc(O)cc1)C(=O)O; ξHyp = O=C(O)C1CC(O)CN1; ξOrn = NCCCC(N)C(=O)O; ξT = CC(O)C(N)C(=O)O; ξV = CC(C)C(N)C(=O)O; ξA = CC(N)C(=O)O
# Assays:
# Candida albicans CY1002 = test: In vitro antifungal activity, broth micro-dilution; assay type: cell-based; details: YNB medium, 1-2 days at 35° C.
# Method: (§1) The in vitro antifungal activities of the representative Aerothricins of the present study were evaluated by determining the 50% inhibitory concentration (IC50), which was calculated as the lowest concentration of an antifungal to inhibit the growth of fungus to […] turbidity compared with the drug-free control growth spectrophotometrically.
# (§2) The IC50 values were determined by the broth micro-dilution procedure based on NCCLS Approved Standard with the following minor modifications (National Committee for Clinical Laboratory Standards. (1997) Reference method for broth dilution antifungal susceptibility testing for yeasts. Approved standard. Document M27-A). Yeast Nitrogen Base (YNB; Difco Lab.) supplemented with 1% glucose and 0.25% K2HPO4 was used as testing medium for yeast, the same medium solidified with 0.2% low melting point agarose (BRL) was used for filamentous fungi. Inoculum size was 1-3×10^4 cells/ml, and incubation was performed for 1-2 days at 35° C.
# Fusarium solani CF1088 = test: In vitro antifungal activity, broth micro-dilution; assay type: cell-based; details: YNB medium with 0.2% agarose, 1-2 days at 35° C.
# Method: as §1, §2
# [1] = tested on: Aspegillus fumigatus CF1003; test: In vitro antifungal activity, broth micro-dilution; assay type: cell-based; details: YNB medium with 0.2% agarose, 1-2 days at 35° C.
# Method: as §1, §2
# [2] = Toxicity on administration to mice for 4 weeks; assay type: in vivo; details: 5 mg/kg and 30 mg/kg to mice for 4 weeks
# Candida albicans = test: Murine systemic candidiasis; assay type: in vivo, mice; details: i.v., b.i.d×1 day followed by q.d.×2 days; survival on day 14
# Method: Mice of a conventional immunocompetent mouse strain, Crj: CD-1 (ICR) were used for experimental infection models of systemic candidiasis. 4 weeks old Crj: CD-1 (ICR) mice were used for systemic candidiasis by injecting Candida albicans 5×10^6 conidia/mouse via the tail vein. Treatments were given twice (0, 4 h after infection) on the first day and once daily on following 2 days for systemic candidiasis (b.i.d×1 day followed by q.d.×2 days), intravenously (i.v.). 50% of effective dose (ED50) values was calculated from the survival number at each dose on day 14.
# mouse hepatocytes = test: In vitro hepatotoxicity test; assay type: cell-based; details: mouse hepatocyte monolayers, 1 day exposure, morphological evaluation
# Description: The mouse hepatocytes were isolated by a collagenase digestion and cultured in microtest plates. The hepatocyte monolayers were exposed to the test Aerothricins in the culture system for 1 day. After the culture period, the hepatocytes were observed under a microscope and evaluated morphologically. The degree of the morphological alteration (degeneration) of the hepatocytes by the test Aerothricins were compared with WF11243 and LY303366.
Compound,"In vitro Antifungal activity, IC50, Candida albicans CY1002 (Candida albicans CY1002)","In vitro Antifungal activity, IC50, Fusarium solani CF1088 (Fusarium solani CF1088)","In vitro Antifungal activity, IC50, Aspegillus fumigatus CF1003 [1]",acute toxicity [2],Solubility (Solubility),"In vivo antifungal activity against systemic candidiasis in mice, ED50 on day 14 (Candida albicans)",Cytotoxicity to hepatocyte (mouse hepatocytes)
CCCCCCCCCCCCC(C)[C@@H]1CC(=O)NC(C(C)O)C(=O)NC(C)C(=O)NC(Cc2ccc(O)cc2)C(=O)NC(C(C)C)C(=O)N2CC(O)CC2C(=O)NC(C(C)O)C(=O)NC(C(C)O)C(=O)N2CCC(O)C2C(=O)NC(C(O)CC(N)=O)C(=O)NCC(=O)NC(C(C)O)C(=O)NC(CCCN)C(=O)O1 (stereo partly shown) [Aerothricin 1] ([ξT][ξA][ξY][ξV][ξHyp][ξT][ξT][X1][X2]G[ξT][ξOrn]; linker N-C via X7),0.03 µg/mL,0.21 µg/mL,0.06 µg/mL,no acute toxicity,"Soluble: water, methanol, dimethylsulfoxide",,
CCCCCCCCCCCCC[C@@H]1CC(=O)NC(C(C)O)C(=O)NC(C)C(=O)NC(Cc2ccc(O)c(O)c2)C(=O)NC(C(C)C)C(=O)N2CC(O)CC2C(=O)NC(C(C)O)C(=O)NC(C(C)O)C(=O)N2CCC(O)C2C(=O)NC(C(O)CC(N)=O)C(=O)NCC(=O)NC(C(C)O)C(=O)NC(CCCN)C(=O)O1 (stereo partly shown) [Aerothricin 2] ([ξT][ξA][ξDopa][ξV][ξHyp][ξT][ξT][X1][X2]G[ξT][ξOrn]; linker N-C via X4),,,,,"Soluble: water, methanol, dimethylsulfoxide",,
CCCCCCCCCCCCC[C@@H]1CC(=O)NC(C(C)O)C(=O)NC(C)C(=O)NC(Cc2ccc(OC)cc2)C(=O)NC(C(C)C)C(=O)N2CC(O)CC2C(=O)NC(C(C)O)C(=O)NC(C(C)O)C(=O)N2CCC(O)C2C(=O)NC(C(O)CC(N)=O)C(=O)NCC(=O)NC(C(C)O)C(=O)NC(CCCN)C(=O)O1 (stereo partly shown) [Aerothricin 5] ([ξT][ξA][ξY](Me)[ξV][ξHyp][ξT][ξT][X1][X2]G[ξT][ξOrn]; linker N-C via X4),0.03 µg/mL,0.19 µg/mL,0.07 µg/mL,,,0.3 mg/kg,
CCCCCCCCCCOc1ccc(CC[C@@H]2CC(=O)NC(C(C)O)C(=O)NC(C)C(=O)NC(Cc3ccc(O)cc3)C(=O)NC(C(C)C)C(=O)N3CC(O)CC3C(=O)NC(C(C)O)C(=O)NC(C(C)O)C(=O)N3CCC(O)C3C(=O)NC(C(O)CC(N)=O)C(=O)NCC(=O)NC(C(C)O)C(=O)NC(CCCN)C(=O)N2)cc1 (stereo partly shown) [Aerothricin 36],0.08 µg/mL,1.00 µg/mL,0.05 µg/mL,,,0.6 mg/kg,
CCCCCOc1ccc(-c2ccc(CC[C@@H]3CC(=O)NC(C(C)O)C(=O)NC(C)C(=O)NC(Cc4ccc(O)cc4)C(=O)NC(C(C)C)C(=O)N4CC(O)CC4C(=O)NC(C(C)O)C(=O)NC(C(C)O)C(=O)N4CCC(O)C4C(=O)NC(C(O)CC(N)=O)C(=O)NCC(=O)NC(C(C)O)C(=O)NC(CCCN)C(=O)N3)cc2)cc1 (stereo partly shown) [Aerothricin 41] ([ξT][ξA][ξY][ξV][ξHyp][ξT][ξT][X1][X2]G[ξT][ξOrn]; linker N-C via X11),0.08 µg/mL,2.40 µg/mL,0.03 µg/mL,,,0.3 mg/kg,
CC(C)CCCOc1ccc(-c2ccc(CC[C@@H]3CC(=O)NC(C(C)O)C(=O)NC(C)C(=O)NC(Cc4ccc(O)cc4)C(=O)NC(C(C)C)C(=O)N4CC(O)CC4C(=O)NC(C(C)O)C(=O)NC(C(C)O)C(=O)N4CCC(O)C4C(=O)NC(C(O)CC(N)=O)C(=O)NCC(=O)NC(C(C)O)C(=O)NC(CCCN)C(=O)N3)cc2)cc1 (stereo partly shown) [Aerothricin 45] ([ξT][ξA][ξY][ξV][ξHyp][ξT][ξT][X1][X2]G[ξT][ξOrn]; linker N-C via X5),,,,,,,>100 µg/mL
CC1NC(=O)C(C(C)O)NC(=O)C[C@@H](CCc2ccc(-c3ccc(OCCCc4ccccc4)cc3)cc2)NC(=O)C(CCCN)NC(=O)C(C(C)O)NC(=O)CNC(=O)C(C(O)CC(N)=O)NC(=O)C2C(O)CCN2C(=O)C(C(C)O)NC(=O)C(C(C)O)NC(=O)C2CC(O)CN2C(=O)C(C(C)C)NC(=O)C(Cc2ccc(O)cc2)NC1=O (stereo partly shown) [Aerothricin 46] ([ξT][ξA][ξY][ξV][ξHyp][ξT][ξT][X1][X2]G[ξT][ξOrn]; linker N-C via X9),0.09 µg/mL,1.80 µg/mL,0.08 µg/mL,,,0.4 mg/kg,
CCCCCCCCCOc1ccc2cc(CC[C@@H]3CC(=O)NC(C(C)O)C(=O)NC(C)C(=O)NC(Cc4ccc(O)cc4)C(=O)NC(C(C)C)C(=O)N4CC(O)CC4C(=O)NC(C(C)O)C(=O)NC(C(C)O)C(=O)N4CCC(O)C4C(=O)NC(C(O)CC(N)=O)C(=O)NCC(=O)NC(C(C)O)C(=O)NC(CCCN)C(=O)N3)ccc2c1 (stereo partly shown) [Aerothricin 53] ([ξT][ξA][ξY][ξV][ξHyp][ξT][ξT][X1][X2]G[ξT][ξOrn]; linker N-C via X8),,,,,,,>100 µg/mL
CCCCCCCCCCCCC[C@@H]1CC(=O)NC(C(C)O)C(=O)NC(C)C(=O)NC(Cc2ccc(O)cc2)C(=O)NC(C(C)C)C(=O)N2CC(O)CC2C(=O)NC(C(C)O)C(=O)NC(C(C)O)C(=O)N2CCC(O)C2C(=O)NC(C(O)CC(N)=O)C(=O)NCC(=O)NC(C(C)O)C(=O)NC(CCCN(CCCN)C(=O)[C@@H](N)CCCN)C(=O)O1 (stereo partly shown) [Aerothricin 132] ([ξT][ξA][ξY][ξV][ξHyp][ξT][ξT][X1][X2]G[ξT][X6]; linker N-C via X4),0.30 µg/mL,0.19 µg/mL,0.10 µg/mL,,,,>100 µg/mL
"CCCCCCCCCCCCC[C@@H]1CC(=O)NC(C(C)O)C(=O)NC(C)C(=O)NC(Cc2ccc(O)cc2)C(=O)NC(C(C)C)C(=O)N2CC(O)CC2C(=O)NC(C(C)O)C(=O)NC(C(C)O)C(=O)N2CCC(O)C2C(=O)NC(C(O)CC(N)=O)C(=O)NCC(=O)NC(C(C)O)C(=O)NC(CCCN(CCCN)C(=O)[C@H](CCCN)N(CCN)CCN)C(=O)O1 (stereo partly shown) [Aerothricin 134] ([ξT][ξA][ξY][ξV][ξHyp][ξT][ξT][X1][X2]G[ξT][X3](Orn(Nα,Nα-(2-aminoethyl)2)); linker N-C via X4)",,,,,,,>100 µg/mL
CCCCCCCCCCCCC[C@@H]1CC(=O)NC(C(C)O)C(=O)NC(C)C(=O)NC(Cc2ccc(O)cc2)C(=O)NC(C(C)C)C(=O)N2CC(O)CC2C(=O)NC(C(C)O)C(=O)NC(C(C)O)C(=O)N2CCC(O)C2C(=O)NC(C(O)CC(N)=O)C(=O)NCC(=O)NC(C(C)O)C(=O)NC(CCCN(CCCN)C(=O)[C@@H](CCCN)N(CCN)CCN)C(=O)O1 (stereo partly shown) [Aerothricin 135] ([ξT][ξA][ξY][ξV][ξHyp][ξT][ξT][X1][X2]G[ξT][X3](NαBis(2-aminoethyl)dOrn); linker N-C via X4),,,,,,,>100 µg/mL
"CCCCCOc1ccc(-c2ccc(-c3ccc(C(=O)N[C@H]4C[C@@H](O)[C@@H](O)NC(=O)[C@@H]5[C@@H](O)[C@@H](C)CN5C(=O)[C@H]([C@@H](C)O)NC(=O)[C@H]([C@H](O)[C@@H](O)c5ccc(O)cc5)NC(=O)[C@@H]5C[C@@H](O)CN5C(=O)[C@H]([C@@H](C)O)NC4=O)cc3)cc2)cc1 [LY303366, reference compound] ({pTerphenylCO(4''-OnC5H11)}-[Orn(4R-OH,5R-OH)]T[Hyp][hTyr(3S-OH,4S-OH)]T[Pro(3S-OH,4S-Me)]; lactam 1-C)",,,,,,,10 µg/mL
